Legend:
K-Ras G12D = biological target: T1, K-Ras G12D (Homo sapiens, UniProt P01116, G12D); assay: PPI-HTRF assay, K-Ras G12D / SOS1 interaction; type: biochemical; settings: HTRF, K-Ras G12D; read-out: PPI-HTRF-5 nM (K-Ras G12D IC50)
T1 construct: made in house; host or cells: E. coli, e.g. BL21 (DE3)
Excerpt: (§1) This assay can be also used to assess a selective inhibition or reduction of signaling output of a mutant Ras protein relative to a wildtype, or relative to a different mutant Ras protein. For example, the equilibrium interaction of wildtype Kras or K-Ras mutant (e.g., wildtype or a mutant thereof) with SOS1 (e.g., hSOS1) can be assessed as a proxy or an indication for a subject compound's ability to bind and inhibit Ras protein. HTRF assay detects from (i) a fluorescence resonance energy transfer (FRET) donor (e.g., antiGST-Europium) that is bound to GST-tagged K-Ras mutant to (ii) a FRET acceptor (e.g., anti-6His-XL665) bound to a His-tagged hSOS1.
(§2) The assay buffer can contain ˜5 mM HEPES pH 7.4, ˜150 mM NaCl, ˜1 mM DTT, 0.05% BSA and 0.0025% (v/v) Igepal. A Ras working solution is prepared in an assay buffer containing typically a suitable amount of the protein construct (e.g., GST-tagged K-Ras mutant) and the FRET donor (e.g., antiGST-Eu(K) from Cisbio, France). A SOS1 working solution is prepared in an assay buffer containing suitable amount of the protein construct (e.g., His-hSOS1) and the FRET acceptor (e.g., anti-6His-XL665 from Cisbio, France). A suitable amount of the protein construct will depend on the range of activity or range of IC50 values being detected or under investigation. For detecting IC50 within a range of 500 nM, the protein constructs of the same range of molarity can be utilized.
(§3) A fixed volume of DMSO with or without test compound is transferred into a 384-well plate. Ras working solution is added to all wells of the test plate. SOS1 working solution is added to all wells except for those that are subsequently filled the inhibitor control solution. Upon incubation for about 10 minutes or longer, the fluorescence is measured with a M1000Pro plate reader (Tecan) using HTRF detection (excitation 337 nm, emission 1: 620 nm, emission 2: 665 nm). Compounds are tested in duplicate at different concentrations (for example, 10 μM, 2.5 μM, 0.63 μM, 0.16 μM, 0.04 μM, 0.01 μM test compound). The ratiometric data (i.e., emission 2 divided by emission 1) is used to calculate IC50 values against Ras using GraphPad Prism (GraphPad software). Following this general procedure, samples are tested with or without a subject compound disclosed herein including compounds exemplified in Table 1 to assess their abilities to inhibit a mutant K-Ras relative to another K-Ras (e.g., different mutant or wildtype). Signaling output measured in terms of IC50 values can be obtained, a ratio of IC50 against one mutant relative to another mutant can be calculated. For instance, a selective reduction of K-Ras G12D signaling output can be evidenced by a ratio greater than one. In particular, a selective reduction of K-Ras G12D signaling relative to K-Ras WT signaling is evidenced if the ratio of IC50 (against K-Ras WT) to IC50 (against K-Ras G12D) is greater than 1.

K-Ras G12S = biological target: T2, K-Ras G12S (Homo sapiens, UniProt P01116, G12S); assay: PPI-HTRF assay, K-Ras G12S / SOS1 interaction; type: biochemical; settings: read-out: PPI-HTRF-5 nM (K-Ras G12S IC50)
T2 construct: made in house; host or cells: E. coli, e.g. BL21 (DE3)
Excerpt: as §1, §2, §3

K-Ras G12V = biological target: T3, K-Ras G12V (Homo sapiens, UniProt P01116, G12V); assay: PPI-HTRF assay, K-Ras G12V / SOS1 interaction; type: biochemical; settings: HTRF, K-Ras G12V; read-out: PPI-HTRF-5 nM (K-Ras G12V IC50)
T3 construct: made in house; host or cells: E. coli, e.g. BL21 (DE3)
Excerpt: as §1, §2, §3

wildtype K-Ras = biological target: T4, wildtype K-Ras (Homo sapiens, UniProt P01116); assay: PPI-HTRF assay, wildtype K-Ras / SOS1 interaction; type: biochemical; settings: HTRF, K-Ras wt; read-out: PPI-HTRF-5 nM (K-Ras wt IC50)
T4 construct: made in house; host or cells: E. coli, e.g. BL21 (DE3)
Excerpt: as §1, §2, §3

GP2D cells = assay: Ras cellular assay, cell proliferation GP2D; type: cell-based
Experimental: (§4) For example, this assay can be also used to assess selective growth inhibition of a mutant Ras protein relative to a wildtype, or relative to a different mutant Ras protein.
ASPC-1 (ATCC CRL-1682), Panc-10.05 (ATCC CRL-2547), A427, GP2d cell lines or any other cell lines comprising a G12D mutation can be used to assess Ras cellular signaling in vitro, e.g., in response to a compound described herein. For example, ASPC-1 culture medium is prepared with RPMI-1640 and 10% heat-inactivated FBS. Panc-10.05 culture medium is prepared with RPMI-1640, 10 Units/mL human recombinant insulin, and 10% FBS. A427 cell culture is prepared with RPMI-1640 and 10% heat-inactivated FBS. A CellTiter-Glo (CTG) luminescent based assay (Promega) is used to assess growth of the cells, as a measurement of the ability of the compounds herein to inhibit Ras signaling in the cells. The cells (e.g., 800 per well) are seeded in their respective culture medium in standard tissue culture-treated 384-well format plates (Falcon #08-772-116) or ultra-low attachment surface 384-well format plates (S-Bio #MS-9384UZ). The day after plating, cells are treated with a dilution series (e.g., a 9 point 3-fold dilution series) of the compounds herein (e.g., approximately 40 μL final volume per well). Cell viability can be monitored (e.g., approximately 5 days later) according to the manufacturer's recommended instructions, where the CellTiter-Glo reagent is added (e.g., approximately 10 μL), vigorously mixed, covered, and placed on a plate shaker (e.g., approximately for 20 min) to ensure sufficient cell lysis prior to assessment of luminescent signal. The IC50 values are determined using the four parameter fit. The resulting IC50 value is a measurement of the ability of the test compound to reduce cell growth of Ras-driven cells (e.g., tumor cell lines) in vitro and/or in vivo.

SW620 cells = assay: Ras cellular assay, cell proliferation SW620; type: cell-based; settings: Homo sapiens, SW-620
Excerpt: as §4

T2 sequence (P01116 1-188 isoform P01116-2 G12S): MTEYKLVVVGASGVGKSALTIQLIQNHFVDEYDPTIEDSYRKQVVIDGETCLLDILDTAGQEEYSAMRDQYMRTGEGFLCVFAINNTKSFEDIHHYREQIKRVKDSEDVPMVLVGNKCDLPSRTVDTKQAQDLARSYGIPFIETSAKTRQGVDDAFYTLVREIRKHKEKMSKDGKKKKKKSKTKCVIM
T1 sequence (P01116 1-188 isoform P01116-2 G12D): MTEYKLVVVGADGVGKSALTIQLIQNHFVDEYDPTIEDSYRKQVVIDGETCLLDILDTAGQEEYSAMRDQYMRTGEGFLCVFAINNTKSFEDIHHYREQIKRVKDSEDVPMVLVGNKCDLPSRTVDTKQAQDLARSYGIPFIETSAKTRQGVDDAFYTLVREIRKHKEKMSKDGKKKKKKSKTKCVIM
T4 sequence (P01116 1-188 isoform P01116-2): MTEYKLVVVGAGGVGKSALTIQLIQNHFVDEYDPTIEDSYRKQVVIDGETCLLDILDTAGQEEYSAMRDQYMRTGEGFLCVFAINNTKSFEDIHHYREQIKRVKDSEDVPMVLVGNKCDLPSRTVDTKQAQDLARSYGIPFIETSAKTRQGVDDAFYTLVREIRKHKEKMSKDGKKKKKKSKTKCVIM
T3 sequence (P01116 1-188 isoform P01116-2 G12V): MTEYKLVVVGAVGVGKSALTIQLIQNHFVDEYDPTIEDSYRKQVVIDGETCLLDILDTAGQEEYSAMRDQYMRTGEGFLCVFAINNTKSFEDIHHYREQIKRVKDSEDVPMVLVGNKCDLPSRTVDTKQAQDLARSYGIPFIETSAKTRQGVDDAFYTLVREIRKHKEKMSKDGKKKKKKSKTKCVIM

Row | SMILES | IC50 (K-Ras G12D) [µM] | IC50 (K-Ras G12S) [µM] | IC50 (K-Ras G12V) [µM] | IC50 (wildtype K-Ras) [µM] | IC50 (GP2D cells) [µM] | IC50 (SW620 cells) [µM]
1 | N#Cc1c(N)sc2c(F)ccc(-c3c(Cl)c4c5c(nc(OC[C@@]67CCCN6C[C@H](F)C7)nc5c3F)NC3COCC3CO4)c12 (stereo partly drawn) [compound 208, 2-amino-4-(6-chloro-4-fluoro-2-(((2R,7aS)-2-fluorotetrahydro-1H-pyrrolizin-7a(5H)-yl)methoxy)-8a,9,11a,12-tetrahydro-8H,11H-furo[3′,4′:6,7][1,5]oxazocino[4,3,2-de]quinazolin-5-yl)-7-fluorobenzo[b]thiophene-3-carbonitrile] | < 5 | < 5 | < 5 | < 5 | < 5 | < 5
2 | CN1c2nc(OC[C@@]34CCCN3C[C@H](F)C4)nc3c(F)c(-c4ccc(F)c5sc(N)c(C#N)c45)c(Cl)c(c23)OCC2CCC21 (stereo partly drawn) [compound 187, 2-amino-4-(6-chloro-4-fluoro-2-(((2R,7aS)-2-fluorotetrahydro-1H-pyrrolizin-7a(5H)-yl)methoxy)-11-methyl-8,8a,9,10,10a,11-hexahydrocyclobuta[6,7][1,5]oxazocino [4,3,2-de]quinazolin-5-yl)-7-fluorobenzo[b]thiophene-3-carbonitrile] | < 5 | < 5 | < 5 | < 5 | < 5 | < 5
3 | N#Cc1c(N)sc2c(F)ccc(-c3c(Cl)c4c5c(nc(OC[C@@]67CCCN6C[C@H](F)C7)nc5c3F)N3CC(N)CCC3CCO4)c12 (stereo partly drawn) [compound 129, 2-amino-4-(9-amino-3-chloro-1-fluoro-13-(((2R,7aS)-2-fluorotetrahydro-1H-pyrrolizin-7a(5H)-yl)methoxy)-6,6a,7,8,9,10-hexahydro-5H-pyrido[1′,2′:5,6][1,5]oxazocino[4,3,2-de]quinazolin-2-yl)-7-fluorobenzo[b]thiophene-3-carbonitrile] | < 5 | < 5 | < 5 | < 5 | < 5 | > 5
4 | CNCC(C)N1c2nc(OC[C@@]34CCCN3C[C@H](F)C4)nc3c(F)c(-c4ccc(F)c5sc(N)c(C#N)c45)c(Cl)c(c23)OCC2COCC21 (stereo partly drawn) [compound 109, 2-amino-4-(6-chloro-4-fluoro-2-(((2R,7aS)-2-fluorotetrahydro-1H-pyrrolizin-7a(5H)-yl)methoxy)-12-(1-(methylamino)propan-2-yl)-8a,9,11a,12-tetrahydro-8H,11H-furo[3′,4′:6,7][1,5]oxazocino[4,3,2-de]quinazolin-5-yl)-7-fluorobenzo[b]thiophene-3-carbonitrile] | < 5 | < 5 | < 5 | < 5 | > 5 | > 5
5 | N#Cc1c(N)sc2c(F)ccc(-c3c(Cl)c4c5c(nc(OC[C@@]67CCCN6C[C@H](F)C7)nc5c3F)N3C[C@H](NC(=O)[C@H]5CN5)C[C@H]3CO4)c12 [compound 111, (2R)-N-((2R,12aS)-9-(2-amino-3-cyano-7-fluorobenzo[b]thiophen-4-yl)-10-chloro-8-fluoro-6-(((2R,7aS)-2-fluorotetrahydro-1H-pyrrolizin-7a(5H)-yl)methoxy)-2,3,12,12a-tetrahydro-1H-pyrrolo[2′,1′:,4][1,4]oxazepino[5,6,7-de]quinazolin-2-yl)aziridine-2-carboxamide] | < 5 | < 5 | < 5 | < 5 | > 5 | > 5
6 | N#Cc1c(N)sc2c(F)ccc(-c3c(Cl)c4c5c(nc(OC[C@@]67CCCN6C[C@H](F)C7)nc5c3F)N3C[C@H](O)C[C@@H]3CCO4)c12 [compound 164, 2-amino-4-((2R,13aS)-10-chloro-8-fluoro-6-(((2R,7aS)-2-fluorotetrahydro-1H-pyrrolizin-7a(5H)-yl)methoxy)-2-hydroxy-1,2,3,12,13,13a-hexahydropyrrolo[1′,2′:5,6][1,5]oxazocino [4,3,2-de]quinazolin-9-yl)-7-fluorobenzo[b]thiophene-3-carbonitrile] | < 5 | < 5 | < 5 | < 5 | < 5 | < 5
7 | CN1CC2COCC2Oc2c(Cl)c(-c3ccc(F)c4sc(N)c(C#N)c34)c(F)c3nc(OC[C@@]45CCCN4C[C@H](F)C5)nc1c23 (stereo partly drawn) [compound 113, 2-amino-4-(1-chloro-3-fluoro-5-(((2R,7aS)-2-fluorotetrahydro-1H-pyrrolizin-7a(5H)-yl)methoxy)-7-methyl-7,8,8a,9,11,11a-hexahydrofuro[3′,4′:7,8][1,5]oxazocino[4,3,2-de]quinazolin-2-yl)-7-fluorobenzo[b]thiophene-3-carbonitrile] | < 5 | < 5 | < 5 | < 5 | < 5 | < 5
8 | N#Cc1c(N)sc2c(F)ccc(-c3c(Cl)c4c5c(nc(OC[C@@]67CCCN6C[C@H](F)C7)nc5c3F)N3CCC[C@@H]3CC(CO)O4)c12 (single isomer, unassigned) [compound 177] | < 5 | < 5 | < 5 | < 5 | < 5 | < 5
9 | CN(C)CCN1c2nc(OC[C@@]34CCCN3C[C@H](F)C4)nc3c(F)c(-c4ccc(F)c5sc(N)c(C#N)c45)c(Cl)c(c23)OCC2COCC21 (stereo partly drawn) [compound 106, 2-amino-4-(6-chloro-12-(2-(dimethylamino)ethyl)-4-fluoro-2-(((2R,7aS)-2-fluorotetrahydro-1H-pyrrolizin-7a(5H)-yl)methoxy)-8a,9,11a,12-tetrahydro-8H,11H-furo[3′,4′:6,7][1,5]oxazocino[4,3,2-de]quinazolin-5-yl)-7-fluorobenzo[b]thiophene-3-carbonitrile] | < 5 | < 5 | < 5 | < 5 | < 5 | < 5

From patent US12059425B2, “Heterocyclic compounds and uses thereof” (Kumquat Biosciences Inc., priority 2022, dated 2024)
